Data: patent publication US11408022B2, “Preparation method of anti-oxidation polypeptide” (Fu Zhou University, priority 2018, dated 2022)
Where no end group is shown, it is not given here.

Tests used:
Format in all cases: biochemical
[1] = Oxygen radical absorption capacity
[2] = DPPH radical elimination activity; conditions: 1 mg/mL
Description: 1 mL of the sample of different concentrations was respectively well mixed with 1 mL of DPPH solution ([…], prepared using 95% ethanol). The mixed solutions were kept still in shadow at room temperature for 30 min, and then the absorbance was determined at the wavelength of 517 nm. 1 mL of 95% ethanol solution in replacement of the DDPPH solution was used to prepare the sample reference group; and the control group included 1 mL of DPPH solution and 1 mL of 95% ethanol solution. The elimination rate of DPPH radicals of the sample was calculated using the following equation: […]
In the equation, • Ai—absorbance of the sample group • Aj—absorbance of the sample reference group • A0—absorbance of the control group

[3] = ABTS radical elimination activity; conditions: 1 mg/mL
Description: 7 mM ABTS mother solution and 2.45 mM potassium peroxydisulfate solution were respectively prepared and stored for later use. The two solutions were mixed in a ratio of 1:1 before use. The mixed solution was placed still at room temperature for 16 h, and then diluted with phosphate buffer solution (5 mM, 7.4 pH) to obtain an ABTS radical solution with absorbance of 0.70±0.02 at the wavelength of 734 nm. The ABTS radical solution was mixed with samples of different concentrations and equal volume; after 10 min reaction at room temperature, the absorbance of the mixtures was determined at the wavelength of 734 nm; and finally, the mixtures were zero-set using the phosphate buffer solution (5 mM, 7.4 pH). In the control group, distilled water was used to replace samples. The elimination rate of ABTS radicals of the sample was calculated using the following equation: […]
In the equation: • Acontrol—absorbance of the control group • Asample—absorbance of the sample

**Q.** For “GAAVAL [anti-oxidation polypeptide, hexapeptide isolated from alkali protease hydrolysate of black shark skins]”, which “Oxygen radical absorption capacity” value [1] is on record?
**A.** 527.53±65.15 μmol Trolox/g peptide

**Q.** What about the “Elimination rate of DPPH radicals” value [2] of the same substance?
**A.** 67.00±0.24%

**Q.** What about the “Elimination rate of ABTS radicals” value [3] of the same substance?
**A.** 64.12±0.20%
